Results as given in PMC4319983, “PE859, a Novel Tau Aggregation Inhibitor, Reduces Aggregated Tau and Prevents Onset and Progression of Neural Dysfunction In Vivo” (PLoS ONE, 2015).

Target: T1, tau (microtubule-associated protein tau) (Homo sapiens, UniProt P10636)
T1 construct: gene MAPT
Test: ThT fluorescence assay of heparin-induced aggregation of recombinant tau; 3RMBD result confirmed by TEM and CD
Type: biochemical
From the text: ThT fluorescence assay of heparin-induced aggregation of recombinant tau; 3RMBD result confirmed by TEM and CD on tau (microtubule-associated protein tau) | PE859 inhibited the heparin-induced aggregation of both 3RMBD and full length tau in a concentration-dependent manner.

T1 sequence (P10636 150-247 isoform P10636-3): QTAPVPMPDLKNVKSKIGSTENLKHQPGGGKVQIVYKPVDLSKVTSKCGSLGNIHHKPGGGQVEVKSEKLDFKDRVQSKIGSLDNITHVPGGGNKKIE

## COc1cc(OCc2ccccn2)ccc1/C=C/c1cc(/C=C/c2ccc3cc[nH]c3c2)[nH]n1 [PE859, 3-[(1E)-2-(1H-indol-6-yl)ethenyl]-5-[(1E)-2-[2-methoxy-4-(2-pyridylmethoxy)phenyl]ethenyl]-1H-pyrazole]
  IC50: 810 nM
